From patent publication US5304565A, “Nitrogen containing heterocyclic compounds, their production and use” (Takeda Chemical Industries, Ltd., priority 1990, dated 1994) come the findings set out here.

Experiment [1] deals with A-II-induced pressor action. Kind of experiment: Inhibitory effect on pressor action of A-II (100 ng/kg i.v.) after oral administration. The class given is in vivo, Jcl: SD rats (9 week old, male). As to conditions: Rattus norvegicus, 30 mg/kg p.o., SD rats, read-out: Pressor Response (30 mg/Kg, p.o.) (% Inhibition). How it is done: Jcl: SD rats (9 week old, male) were used. On the day previous to the experiment, these animals were applied with cannulation into the femoral artery and vein under anesthesia with pentobarbital Na. The animals were fasted but allowed free access to drinking water until the experiment was started. Just on the day of conducting the experiment, the artery cannula was connected with a blood-pressure transducer, and the average blood pressure was recorded by means of polygraph. Before administration of the drug, the pressor action due to intravenous administration of A-II (100 ng/kg) as the control was measured. The drugs were orally administered, and then, at each point of the measurement, A-II was administered intravenously, and the pressor action was similarly measured. By comparing the pressor action before and after administration of the drug, the precent inhibition by the drug on A-II-induced pressor action was evaluated.

The target of experiment [2] is T1, A-II-receptor (membrane fraction of bovine adrenal cortex) (Bos taurus, UniProt P25104).
T1 construct: prepared from the membrane fraction of bovine adrenal cortex; from tissue; host or cells: bovine adrenal cortex, membrane fraction
T1 sequence (P25104 1-359): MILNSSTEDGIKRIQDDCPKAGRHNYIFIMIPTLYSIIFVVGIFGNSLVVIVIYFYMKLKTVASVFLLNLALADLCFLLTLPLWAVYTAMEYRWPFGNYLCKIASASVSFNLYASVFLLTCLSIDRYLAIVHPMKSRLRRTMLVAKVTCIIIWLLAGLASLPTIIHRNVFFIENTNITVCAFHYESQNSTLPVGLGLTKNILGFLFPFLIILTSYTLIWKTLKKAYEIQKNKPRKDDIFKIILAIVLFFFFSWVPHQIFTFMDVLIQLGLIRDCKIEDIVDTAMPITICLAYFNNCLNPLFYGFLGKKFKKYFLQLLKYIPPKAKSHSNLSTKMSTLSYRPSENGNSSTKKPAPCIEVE
Description: Inhibition of binding of angiotensin-II to angiotensin receptor (radio receptor assay, 125I-A-II). The following applies: room temperature, one hour; for inhibition at 1 µM: 10^-6 M; for inhibition at 0.1 µM: 10^-7 M. How it is done:
An experiment of inhibition on the binding of angiotensin-II (A-II) to A-II-receptor was conducted by modifying the method of Douglas et al. [Endocrinology, 102, 685-696 (1978)]. An A-II-receptor was prepared from the membrane fraction of bovine adrenal cortex.
The compound of the present invention (10^-9 M to 3×10^-5 M) and ^125 I-A-II (1.85 kBq/50 μl) were added to the receptor membrane fraction, and the mixture was incubated at room temperature for one hour. The receptor-bound and free ^125 I-A-II were separated through a filter (Whatman GF/B filter), and the radioactivity of ^125 I-A-II bound to the receptor was measured.

A word on the inhibition: it is the relative decrease from the control value, in per cent. Consider `CCCCc1nc2ccccc2c(=O)n1Cc1ccc(-c2ccccc2-c2nnn[nH]2)cc1` [Working Example 23, 2-n-Butyl-3-[[2'-(1H-tetrazol-5-yl)biphenyl-4-yl]methyl]-4(3H)-quinazolinon], for which the inhibition in vivo at 30 mg/kg in experiment [1] is no less than 70%. In experiment [2], this compound returned an inhibition at 1 µM of 85% and an inhibition at 0.1 µM of 46%.
Consider `CCCCc1ncc(C(=O)OCC)c(=O)n1Cc1ccc(-c2ccccc2-c2nnn[nH]2)cc1` [Working Example 10, Ethyl 2-n-butyl-4-oxo-3-[[2'-(1H-tetrazol-5-yl)biphenyl-4-yl]methyl]-3,4-dihydropyrimidine-5-carboxylate], for which, in experiment [2], the inhibition at 1 µM turned out to be 75% and the inhibition at 0.1 µM turned out to be 32%.
As for `CCCCc1nc2cccc(CO)c2c(=O)n1Cc1ccc(-c2ccccc2-c2nnn[nH]2)cc1` [Working Example 54, 2-Butyl-5-hydroxymethyl-3-[[2'-(1H-tetrazol-5-yl)biphenyl-4-yl]methyl]-4(3H)-quinazolinone], the inhibition in vivo at 30 mg/kg in experiment [1] was no less than 70%. In experiment [2], this compound showed an inhibition at 1 µM of 88% and an inhibition at 0.1 µM of 74%.
Take `CCCc1nc2ccc(OCC(=O)N3CCOCC3)cc2c(=O)n1Cc1ccc(-c2ccccc2-c2nn[nH]n2)cc1` [Working Example 48]: in experiment [2], testing at 1 µM gave an inhibition of 95% and 0.1 µM produced 81% inhibition.
For `CCCCc1cc(=O)c(C(=O)OCC)cn1Cc1ccc(-c2ccccc2-c2nnn[nH]2)cc1` [Working Example 2, Ethyl 6-n-butyl-4-oxo-1-[[2'-(1H-tetrazol-5-yl)biphenyl-4-yl]methyl]-1,4-dihydronicotinate] the same measures were 67% and 25%.
For the compound `CCCCc1cc(=O)c(C(=O)OCC)cn1Cc1ccc(-c2ccccc2C(=O)O)cc1` [Working Example 1, Ethyl 6-n-butyl-1-[(2'-carboxybiphenyl-4-yl)methyl]-4-oxo-1,4-dihydronicotinate], in experiment [2], the inhibition at 1 µM was 67% and testing at 0.1 µM gave an inhibition of 24%.
Turning to `CCCCc1nc2ccc(OC)cc2c(=O)n1Cc1ccc(-c2ccccc2-c2nn[nH]n2)cc1` [Working Example 37], the inhibition in vivo at 30 mg/kg in experiment [1] is no less than 70%. Besides, in experiment [2], the inhibition at 1 µM was 97% and testing at 0.1 µM gave an inhibition of 77%.
In experiment [2], `CCCCc1ncc([N+](=O)[O-])c(=O)n1Cc1ccc(-c2ccccc2-c2nn[nH]n2)cc1` [Working Example 13, 2-n-Butyl-5-nitro-3-[[2'-(1H-tetrazol-5-yl)biphenyl-4-yl-]methyl]-4(3H)-pyrimidone] came in with an inhibition at 1 µM of 73% and an inhibition at 0.1 µM of 30%.
As for `CCCCc1nc2cccc(COC(C)=O)c2c(=O)n1Cc1ccc(-c2ccccc2-c2nn[nH]n2)cc1` [Working Example 32], in experiment [1], the inhibition in vivo at 30 mg/kg was no less than 70%. Moreover, in experiment [2], the inhibition at 1 µM is 93% and the inhibition at 0.1 µM came out at 72%.
Regarding `CCCc1cc(=O)c(C(=O)OCC)cn1Cc1ccc(-c2ccccc2-c2nn[nH]n2)cc1` [Working Example 4], in experiment [2], the inhibition at 1 µM is 72% and 0.1 µM produced 31% inhibition.
The corresponding values for `CCCCc1nc2cc(Cl)ccc2c(=O)n1Cc1ccc(-c2ccccc2-c2nn[nH]n2)cc1` [Working Example 25] are 58% and 18%.
As to `CCCCc1nc2ccc(OCCO)cc2c(=O)n1Cc1ccc(-c2ccccc2-c2nnn[nH]2)cc1` [Working Example 55, 2-Butyl-6-(2-hydroxyethyloxy)-3-[[2'-(1H-tetrazol-5-yl)biphenyl-4-yl]-methyl]-4(3H)-quinazolinone], in experiment [1], the inhibition in vivo at 30 mg/kg is no less than 70%. In experiment [2], this compound displayed an inhibition at 1 µM of 94% and an inhibition at 0.1 µM of 75%.
Consider `CCCCc1nc(COC)cc(=O)n1Cc1ccc(-c2ccccc2-c2nnn[nH]2)cc1` [Working Example 8, 2-n-Butyl-3-[[2'-(1H-tetrazol-5-yl)biphenyl-4-yl]methyl]-6-methoxymethyl-4(3H)-pyrimidone], for which, in experiment [2], the inhibition at 1 µM worked out at 73% and the inhibition at 0.1 µM was determined as 29%.
In the case of `CCCc1nc2ccc(OCCOC(=O)c3ccccc3)cc2c(=O)n1Cc1ccc(-c2ccccc2-c2nn[nH]n2)cc1` [Working Example 41], in experiment [1], the inhibition in vivo at 30 mg/kg was no less than 70%. For the same compound, in experiment [2], the inhibition at 1 µM is 83% and testing at 0.1 µM gave an inhibition of 48%.
In the case of `CCCCc1nc2cccc(COC)c2c(=O)n1Cc1ccc(-c2ccccc2-c2nn[nH]n2)cc1` [Working Example 50], in experiment [2], the inhibition at 1 µM was determined as 95% and the inhibition at 0.1 µM was found to be 73%.
For `CCCCCc1cc(=O)c(C(=O)OCC)cn1Cc1ccc(-c2ccccc2-c2nn[nH]n2)cc1` [Working Example 3] the same measures were 71% and 28%.
For `CCCc1nc2ccc(OCC(=O)NCc3ccccc3)cc2c(=O)n1Cc1ccc(-c2ccccc2-c2nn[nH]n2)cc1` [Working Example 49] the same measures were 88% and 63%.
For `CCCCc1nc2cc([N+](=O)[O-])ccc2c(=O)n1Cc1ccc(-c2ccccc2-c2nn[nH]n2)cc1` [Working Example 24] the same measures were 41% and 3%.
For `CCCCc1nc2cccc(C)c2c(=O)n1Cc1ccc(-c2ccccc2-c2nn[nH]n2)cc1` [Working Example 26], the inhibition in vivo at 30 mg/kg in experiment [1] is no less than 70%. For the same compound, in experiment [2], the inhibition at 1 µM was determined as 74% and 0.1 µM produced 36% inhibition.
The corresponding values for `CCCc1nc2ccc(OCCO)cc2c(=O)n1Cc1ccc(-c2ccccc2-c2nnn[nH]2)cc1` [Working Example 53, 6-(2-Hydroxyethyloxy)-2-propyl-3-[[2'-(1H-tetrazol-5-yl)biphenyl-4-yl]methyl]-4(3H)-quinazolinone] are no less than 70%, 92% and 76%.
In experiment [2], `CCCCc1nc(=O)c(C(=O)OCC)cn1Cc1ccc(-c2ccccc2-c2nnn[nH]2)cc1` [Working Example 11, Ethyl 2-n-butyl-4-oxo-1-[[2'-(1H-tetrazol-5-yl)biphenyl-4-yl]methyl]-1,4-dihydropyrimidine-5-carboxylate] registered an inhibition at 1 µM of 70% and an inhibition at 0.1 µM of 29%.
On to `CCCCC(=O)Oc1ccc2nc(CCCC)n(Cc3ccc(-c4ccccc4-c4nn[nH]n4)cc3)c(=O)c2c1` [Working Example 29], for which the inhibition in vivo at 30 mg/kg in experiment [1] is no less than 70%. In addition, in experiment [2], the inhibition at 1 µM turned out to be 92% and testing at 0.1 µM gave an inhibition of 66%.
`CCCCc1nc(CC(=O)OC)cc(=O)n1Cc1ccc(-c2ccccc2-c2nnn[nH]2)cc1` [Working Example 16, 2-n-Butyl-6-methoxycarbonylmethyl-3-[[2'-(1H-tetrazol-5-yl)biphenyl-4-yl]methyl]-4(3H)-pyrimidone]: in experiment [2], the inhibition at 1 µM turned out to be 68% and at 0.1 µM the inhibition was 31%.
In the case of `CCCCc1nc2ccc(OCC(=O)OC)cc2c(=O)n1Cc1ccc(-c2ccccc2-c2nn[nH]n2)cc1` [Working Example 38], the inhibition in vivo at 30 mg/kg in experiment [1] was no less than 70%. In experiment [2], the inhibition at 1 µM was found to be 89% and the inhibition at 0.1 µM amounted to 59%.
In the case of `CCCCc1nc2ccc(OCCOC(C)=O)cc2c(=O)n1Cc1ccc(-c2ccccc2-c2nn[nH]n2)cc1` [Working Example 39], the inhibition in vivo at 30 mg/kg in experiment [1] was no less than 70%. Further, in experiment [2], 1 µM produced 92% inhibition and the inhibition at 0.1 µM was determined as 69%.
